Reference: patent US20200339544A1 (JOINT STOCK COMPANY "BIOCAD", priority 2017, published 2020)
Read-outs that look alike come from different tables or passages of the source. Marks after values point to notes of the source that are not given here.

What was measured:
[1] = Chemical stability in human blood plasma; assay type: in vitro ADME; conditions: pooled human blood plasma; 10 μm; 4 hours at 37° C.; substance amount remaining
Procedure: 2) Determination of chemical stability in human blood plasma.
Determination of stability in human blood plasma was performed using pooled human blood plasma taken from ten healthy donors. The initial candidate solution (10 mM in DMSO) was diluted with pooled blood plasma to a concentration of 10 μm (test solution). The test solution was incubated in a dry block thermostat for 4 hours at 37° C. HPLC with Agilent 1200 liquid chromatography system (Agilent, USA) was employed to determine peak areas of the compounds in test samples, said peak areas corresponding to the initial test time (prior to incubation) and the final test time (after incubation in a dry block thermostat for 4 hours at 37° C.), proteins were preliminarily precipitated with acetonitrile. We used gradient elution (1 mL/min flow rate). Substance amount in % in a sample after thermostatting was determined.
The stability of the compounds was estimated.

[2] = Enzyme stability in human liver S9 fractions; assay type: in vitro ADME; conditions: 0.5 mg/mL pooled human liver S9 fractions; 10 μM compound; 37° C.; pH 7.4; read-out: Stability in liver S9 fractions, Clint
Procedure: Determination of enzyme stability.
Measuring of candidate enzyme stability enabled estimation of the stability of the compounds towards the action of liver enzymes.
Enzyme degradation rate was measured by incubating the reaction mixture in a dry block thermostat at 37° C., said reaction mixture comprising 0.5 mg/mL of pooled human liver S9 fractions (XenoTech, USA, cat # H0610), 10 μM compound, 2 mM β-nicotinamide adenine dinucleotide (Carbosynth, UK, cat # NN10871) and 4 mM magnesium chloride in 0.1 M sodium-phosphate buffer, pH=7.4. The reaction was quenched with acetonitrile (100 μL of acetonitrile/100 μL of the reaction mixture). After quenching, the samples were centrifuged at 10000 rpm for 10 minutes. Supernatant fluid was tested by chromatographic technique using Agilent1200 (Agilent, USA). We used gradient elution (1 mL/min flow rate). A graph of the logarithm of substance's peak area as a function of time was made. The dependent factor of the line corresponded to the elimination rate constant K based on which the drug's half-life T½ and intrinsic clearance CLint were calculated:
Based on the data obtained, candidate enzyme stability in human liver S9 fractions was determined (see Table 11).

WT EGFR (Wild-Type EGFR) = target: T1, WT EGFR (Wild-Type EGFR) (Homo sapiens, UniProt P00533); test: Inhibition of WT EGFR kinase activity (ADP-Glo); assay type: biochemical
T1 construct: purchased SignalChem
Procedure: (§1) To assess IC50 values of the compounds disclosed herein, a biochemical assay of inhibition of kinase activity in a non-cellular system and a functional cellular anti-proliferation assay were used.
(§2) To assess inhibition of WT EGFR (Wild-Type EGFR), DM EGFR (DoubleMutantEGFR, L828R/T790M) kinase activity, SignalChem kinase system and ADP-Glo™ Kinase Assay (V9102, Promega) detection kit were used.
(§3) The measurements were carried out in a 25 μL reaction volume using a 96-well plate. […] The solution of 0.5 mg/mL peptide substrate and 50 μM ATP in the same buffer were added; the solution was incubated for 180 minutes at 37° C. To detect the amount of ATP taken up during the kinase reaction, the ADP Glo Detection Kit (V9102, Promega) was used. The luminescence was measured with the Infinite M200Pro plate spectrophotometer (Tecan, Switzerland). IC50 values were calculated using Magellan 7.2 software (Tecan, Switzerland) approximating experimental points by four-parameter logistic model with the optimization by Levenberg-Marquardt (Table 14).

[3] = target: T2, DM EGFR (DoubleMutantEGFR, L828R/T790M) (Homo sapiens, UniProt P00533, L858R/T790M); test: Inhibition of DM EGFR kinase activity (ADP-Glo); assay type: biochemical; conditions: for IC50: inhibition of kinase activity, EGFR DM (L828R/T790M); for SI, IC50(WT)/IC50(DM): selectivity index, kinase EGFR WT vs EGFR DM
T2 construct: purchased SignalChem
Procedure: as §1, §2, §3

[4] = system: A549 (lung adenocarcinoma, WT); test: Antiproliferative activity on A549 cells (Alamar Blue); assay type: cell-based; conditions: Homo sapiens, antiproliferative test
Procedure: (§4) Antiproliferative activity of EGFR inhibitors (Tables 15 and 16) was measured in cell-based bioassay on continuous epithelial cell cultures: A549 (lung adenocarcinoma, ATCC® CRM-CCL-185™—WT), HCC827 (lung adenocarcinoma, ATCC® CRL-2868™—SM (SingleMutantEGFR, exon19delE746-A750)) and H1975 (lung adenocarcinoma, ATCC® CRL-5908™—DM (DoubleMutantEGFR, L828R/T790M)) using cell viability reagent Alamar Blue (ThermoFisher, # DAL1100). Cells were cultured in 10% FBS-supplemented (Gibco, #16140071) RPMI-1640 (PanEco, S330p) for at least 1 passage after thawing, washed with PBS and passaged in 96-well culture plates (3599, Corning) with RPMI-1640 growth medium supplemented with 2% FBS in an amount of 5*10^3 cells/well for A549, 10*10^3 cells/well for HCC827 and 15*10^3 cells/well for H1975 in 100 μL, and incubated at 37° C. in an incubator (Thermo Forma, USA) under 5% of CO2 for 16-18 h for cell attachment.
(§5) The test compounds were dissolved in DMSO in the selected range of concentrations and transferred to RPMI-1640 medium (PanEco, S330p) supplemented with 2% FBS. After adding 50 μl of the prepared dilutions to the cells, the incubation mixture contained the final concentrations of the test substances and no more than 1% DMSO. The plates were Incubated at 37° C. for 72 h. After incubation, 15 μl of Alamar Blue vital dye (ThermoFisher, # DAL1100) was added to each well. The plates were shaken on an orbital shaker (Biosan, Latvia) and further incubated for 3-5 h in a CO2 incubator (Thermo Forma, USA). Number of living cells was estimated using a plate spectrophotometer Infinite M200Pro, (Tecan, Switzerland) measuring fluorescent signal at the excitation wavelength (λEx) of 540 nm and emission wavelength (λEm) of 590 nm.
IC50 was calculated using Magellan 7.2 software (Tecan, Switzerland) approximating experimental points by four-parameter logistic model with the optimization by Levenberg-Marquardt.
(§6) The ratio between IC50 for cell lines containing wild-type EGFR (A549) and IC50 for cell lines containing target mutation L828R/T790M (H1975) is the selectivity index (SI): […]

[5] = system: H1975 (lung adenocarcinoma, DM, L828R/T790M); test: Antiproliferative activity on H1975 cells (Alamar Blue); assay type: cell-based; conditions: for IC50: Homo sapiens, NCI-H1975, H1975 cells; for SI IC50(A549)/IC50(DM): selectivity index, A549 vs H1975 cells
Procedure: as §4, §5
IC50 was calculated using Magellan 7.2 software (Tecan, Switzerland) approximating experimental points by four-parameter logistic model with the optimization by Levenberg-Marquardt. […]
as §6

[6] = General cytotoxicity on HepG2 cells; assay type: cell-based; conditions: human; general cytotoxicity, HepG2 cells, 72 hours, average of several tests
Procedure: (§7) The CC50 values were determined in the test for General cytotoxicity on HepG2 cells (rhepatocellular carcinoma, ATCC® HB-8065™) (Table 16). The cells were subcultured in DMEM medium (PanEco, S420p) supplemented with 10% FBS (Gibco, #16140071) for at least 1 passage after thawing, washed with PBS and passaged in 96-well culture plates (3599, Corning) at a concentration of 2*10^4 cells/100 μL per well, and incubated for 16-18 h. The test substances were titrated in DMSO and transferred to DMEM (PanEco, S420p) medium supplemented with 2% FBS, added to the cells and incubated at 37° C. for 72 hours; viability of the cells was then assessed using Alamar Blue dye (ThermoFisher, # DAL1100). CC50 was determined similarly to IC50.
(§8) The ratio between CC50 for HepG2 cell line and IC50 for H1975 cell line is the therapeutic index (TI): […]

HepG2 cells = test: General cytotoxicity on HepG2 cells; assay type: cell-based; conditions: therapeutic index, CC50 HepG2 / IC50 H1975
Procedure: as §7, §8

[7] = average values obtained in several tests, Table 16, read-out: H1975 (DM) IC50
[8] = antiproliferative test, Table 15, read-out: IC50 H1975 (DM)

Compound	Stability in blood plasma, % [1]	Intrinsic clearance in human liver S9 fractions at 10 µM [2]	IC50 (WT EGFR (Wild-Type EGFR))	IC50 [3]	SI, IC50(WT)/IC50(DM) [3]	IC50 [4]	IC50 [5, 7]	IC50 [5, 8]	SI IC50(A549)/IC50(DM) [5]	CC50 at 72 h [6]	TI, CC50/IC50 (HepG2 cells)
C=CC(=O)Nc1cc(Nc2nccc(C(=O)c3ccc(NCCO)cc3)n2)c(OC)cc1N(C)CCN(C)C.O=CO [EGFR_3365_106, N-(2-((2-(dimethylamino)ethyl)(methyl)amino)-5-((4-(4-((2-hydroxyethyl)amino)benzoyl)pyrimidin-2-yl)amino)-4-methoxyphenyl)acrylamide formate]	95.2%	6.7 µL/min/mg	108 nM	5.5 nM	19.68	> 20000 nM	33.3 nM	33.3 nM	>601	> 50000 nM	>1501**
C=CC(=O)Nc1cc(Nc2nccc(C(=O)c3ccc(N4CCC[C@H](O)C4)cc3)n2)c(OC)cc1N(C)CCN(C)C [EGFR_3365_108, (S)-N-(2-((2-(dimethylamino)ethyl)(methyl)amino)-5-((4-(4-(3-hydroxypiperidin-1-yl)benzoyl)pyrimidin-2-yl)amino)-4-methoxyphenyl)acrylamide]	100.0%	12.8 µL/min/mg	25.4 nM	1.71 nM	14.85	21400 nM	4.35 nM	4.35 nM	4925	47900 nM	11026
C=CC(=O)Nc1cc(Nc2nccc(C(=O)c3ccc(N4CCC[C@@H](O)C4)cc3)n2)c(OC)cc1N(C)CCN(C)C [EGFR_3365_109, (R)-N-(2-((2-(dimethylamino)ethyl)(methyl)amino)-5-((4-(4-(3-hydroxypiperidin-1-yl)benzoyl)pyrimidin-2-yl)amino)-4-methoxyphenyl)acrylamide]	98.2%	14.8 µL/min/mg	25.2 nM	3.14 nM	8.03	17700 nM	8.66 nM	8.66 nM	2043	45400 nM	5245
C=CC(=O)Nc1cc(Nc2nccc(C(=O)c3ccc(N4CC[C@H](O)C4)cc3)n2)c(OC)cc1N(C)CCN(C)C.O=CO [EGFR_3365_112, (S)-N-(2-((2-(dimethylamino)ethyl)(methyl)amino)-5-((4-(4-(3-hydroxypyrrolidin-1-yl)benzoyl)pyrimidin-2-yl)amino)-4-methoxyphenyl)acrylamide formate]	96.9%	6.8 µL/min/mg	23.5 nM	2.05 nM	11.48	37300 nM	15.3 nM	15.3 nM	2443	> 50000 nM	>3267
C=CC(=O)Nc1cc(Nc2nccc(C(=O)c3ccc(N4CC[C@@H](O)C4)cc3)n2)c(OC)cc1N(C)CCN(C)C [EGFR_3365_113, (R)-N-(2-((2-(dimethylamino)ethyl)(methyl)amino)-5-((4-(4-(3-hydroxypyrrolidin-1-yl)benzoyl)pyrimidin-2-yl)amino)-4-methoxyphenyl)acrylamide]	94.0%	10.5 µL/min/mg	43.4 nM	2.54 nM	17.09	13600 nM	4.42 nM	4.42 nM	3073	46300 nM	10481
C=CC(=O)Nc1cc(Nc2nccc(C(=O)c3ccc(N4CC[C@H](OC)C4)cc3)n2)c(OC)cc1N(C)CCN(C)C [EGFR_3365_114, (S)-N-(2-((2-(dimethylamino)ethyl)(methyl)amino)-4-methoxy-5-((4-(4-(3-methoxypyrrolidin-1-yl)benzoyl)pyrimidin-2-yl)amino)phenyl)acrylamide]	93.9%	16 µL/min/mg	51.4 nM	2.02 nM	25.37	14200 nM	12.1 nM	12.1 nM	1175	23800 nM	1970
